Results: PubChem BioAssay AID1053152 (Broad Institute, 2014)

System: HepG2 TRIB1 mRNA expression, RT-qPCR, 6 h
Assay: gene expression changes with sterol depletion – cell-based, HepG2, RT-PCR, cherry-pick, mechanism study for Trib1 inducer project, late-stage follow-up (AID 1053152)
Conditions: active compounds read high

For `CN1C(=O)c2cc(NC(=O)c3ccc(C(F)(F)F)cc3)ccc2OC[C@@H]2O[C@H](CC(=O)NC3Cc4ccccc4C3)CC[C@@H]21`, which fold induction is on record?
Its fold induction is 2.5.
